According to PubChem BioAssay (NCI):
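At the GI50, growth is halved. TGI denotes the concentration required for complete inhibition of growth.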

Key:
Assay in all cases: NCI anticancer screen, dose series, 384-well format
[1] = tested on: 786-0 renal
[2] = tested on: A498 renal
[3] = tested on: A549 NSCLC
[4] = tested on: ACHN renal
[5] = tested on: BT-549 breast
[6] = tested on: CAKI-1 renal
[7] = tested on: CCRF-CEM leukemia
[8] = tested on: COLO 205 colon
[9] = tested on: DU-145 prostate
[10] = tested on: EKVX NSCLC
[11] = tested on: HCC-2998 colon
[12] = tested on: HCT-116 colon
[13] = tested on: HCT-15 colon
[14] = tested on: HL-60(TB) leukemia
[15] = tested on: HOP-62 NSCLC
[16] = tested on: HOP-92 NSCLC
[17] = tested on: HT29 colon
[18] = tested on: IGROV1 ovarian
[19] = tested on: K-562 leukemia
[20] = tested on: KM12 colon
[21] = tested on: LOX IMVI melanoma
[22] = tested on: M14 melanoma
[23] = tested on: MALME-3M melanoma
[24] = tested on: MCF7 breast
[25] = tested on: MDA-MB-231 breast
[26] = tested on: MDA-MB-435 melanoma
[27] = tested on: MDA-MB-468 breast
[28] = tested on: MOLT-4 leukemia
[29] = tested on: NCI-H226 lung
[30] = tested on: NCI-H23 lung
[31] = tested on: NCI-H322M lung
[32] = tested on: NCI-H460 NSCLC
[33] = tested on: NCI-H522 lung
[34] = tested on: NCI/ADR-RES ovarian
[35] = tested on: OVCAR-3 ovarian
[36] = tested on: OVCAR-4 ovarian
[37] = tested on: OVCAR-5 ovarian
[38] = tested on: OVCAR-8 ovarian
[39] = tested on: PC-3 prostate
[40] = tested on: RPMI-8226 leukemia
[41] = tested on: RXF 393 renal
[42] = tested on: SF-268 CNS
[43] = tested on: SF-295 CNS
[44] = tested on: SF-539 CNS
[45] = tested on: SK-MEL-2 melanoma
[46] = tested on: SK-MEL-28 melanoma
[47] = tested on: SK-MEL-5 melanoma
[48] = tested on: SK-OV-3 ovarian
[49] = tested on: SN12C renal
[50] = tested on: SNB-19 CNS
[51] = tested on: SNB-75 CNS
[52] = tested on: SR leukemia
[53] = tested on: SW-620 colon
[54] = tested on: T-47D breast
[55] = tested on: TK-10 renal
[56] = tested on: U251 glioblastoma
[57] = tested on: UACC-257 melanoma
[58] = tested on: UACC-62 melanoma
[59] = tested on: UO-31 renal

## O=C(NCC(=O)N1CC[C@H](NC2CCC(O)(c3ccc(-c4ncccn4)cn3)CC2)C1)c1cccc(C(F)(F)F)c1 (stereo partly drawn)
[1]
  GI50: 69.3 µM
  TGI: > 100 µM
[2]
  GI50: 55.1 µM
  TGI: > 100 µM
[3]
  GI50: > 100 µM
  TGI: > 100 µM
[4]
  GI50: > 100 µM
  TGI: > 100 µM
[5]
  GI50: 30 µM
  TGI: > 100 µM
[6]
  GI50: 48.1 µM
  TGI: > 100 µM
[7]
  GI50: 29.6 µM
  TGI: > 100 µM
[8]
  GI50: > 87 µM
  TGI: > 100 µM
[9]
  GI50: > 100 µM
  TGI: > 100 µM
[10]
  GI50: 55.9 µM
  TGI: > 100 µM
[11]
  GI50: 35.7 µM
  TGI: > 82.3 µM
[12]
  GI50: 32.1 µM
  TGI: > 100 µM
[13]
  GI50: > 66.7 µM
  TGI: > 100 µM
[14]
  GI50: 30.9 µM
  TGI: > 70.2 µM
[15]
  GI50: > 64.7 µM
  TGI: > 100 µM
[16]
  GI50: > 58.5 µM
  TGI: > 100 µM
[17]
  GI50: > 57.4 µM
  TGI: > 100 µM
[18]
  GI50: > 96 µM
  TGI: > 100 µM
[19]
  GI50: 15.4 µM
  TGI: 31.5 µM
[20]
  GI50: > 100 µM
  TGI: > 100 µM
[21]
  GI50: 53.6 µM
  TGI: > 100 µM
[22]
  GI50: > 49.1 µM
  TGI: > 73.5 µM
[23]
  GI50: > 56.4 µM
  TGI: > 90.9 µM
[24]
  GI50: > 54.6 µM
  TGI: > 100 µM
[25]
  GI50: 77.6 µM
  TGI: > 100 µM
[26]
  GI50: > 100 µM
  TGI: > 100 µM
[27]
  GI50: 17.1 µM
  TGI: 59.3 µM
[28]
  GI50: 20.9 µM
  TGI: 63 µM
[29]
  GI50: > 58 µM
  TGI: > 100 µM
[30]
  GI50: 33.5 µM
  TGI: > 88.2 µM
[31]
  GI50: > 92.4 µM
  TGI: > 100 µM
[32]
  GI50: 38.4 µM
  TGI: > 100 µM
[33]
  GI50: 65.6 µM
  TGI: > 100 µM
[34]
  GI50: > 100 µM
  TGI: > 100 µM
[35]
  GI50: > 81.8 µM
  TGI: > 100 µM
[36]
  GI50: > 60.6 µM
  TGI: > 100 µM
[37]
  GI50: > 100 µM
  TGI: > 100 µM
[38]
  GI50: 96.8 µM
  TGI: > 100 µM
[39]
  GI50: 61.7 µM
  TGI: > 100 µM
[40]
  GI50: 20.8 µM
  TGI: 74.2 µM
[41]
  GI50: 23.6 µM
  TGI: 63.3 µM
[42]
  GI50: > 81.4 µM
  TGI: > 100 µM
[43]
  GI50: > 96.1 µM
  TGI: > 100 µM
[44]
  GI50: > 67.3 µM
  TGI: > 100 µM
[45]
  GI50: > 64.4 µM
  TGI: > 100 µM
[46]
  GI50: > 60 µM
  TGI: > 100 µM
[47]
  GI50: 29.7 µM
  TGI: > 52.1 µM
[48]
  GI50: > 85.7 µM
  TGI: > 100 µM
[49]
  GI50: > 100 µM
  TGI: > 100 µM
[50]
  GI50: 97.5 µM
  TGI: > 100 µM
[51]
  GI50: > 100 µM
  TGI: > 100 µM
[52]
  GI50: 17.4 µM
  TGI: 31.5 µM
[53]
  GI50: > 100 µM
  TGI: > 100 µM
[54]
  GI50: 12.1 µM
  TGI: > 69.4 µM
[55]
  GI50: > 90 µM
  TGI: > 100 µM
[56]
  GI50: 52.5 µM
  TGI: > 100 µM
[57]
  GI50: 19.2 µM
  TGI: 41.1 µM
[58]
  GI50: > 47.5 µM
  TGI: > 70.8 µM
[59]
  GI50: 81.2 µM
  TGI: > 100 µM
